Data published in patent US20250114387A1, “PHARMACEUTICAL COMPOSITION COMPRISING ENAVOGLIFLOZIN FOR PREVENTING OR TREATING OBESITY IN CANINE ANIMALS” (DAEWOONG PHARMACEUTICAL CO., LTD., priority 2022, published 2025).

Test system: obese dogs
Test: Clinical trial in obese dogs: urine test strips, urinary glucose excretion
Format: in vivo
Experimental: A total of 20 dogs were selected and divided into 4 groups with 5 dogs in each group: a normal obese control (OC); hereinafter, referred to as a control (OC)), an enavogliflozin 0.2-administered group, an enavogliflozin 0.5-administered group, and an enavogliflozin 1-administered group. The control was fed regular feed, and the enavogliflozin-administered groups were fed regular feed supplemented with enavogliflozin at doses of 0.2, 0.5, or 1 mg/kg, respectively. The feed was supplemented with enavogliflozin once a day for 8 weeks and given orally.
Serum insulin concentrations were measured 2, 4, 6, 8, and 10 weeks after the start of enavogliflozin administration using a Quantikine Canine Insulin ELISA kit (Catalog no. DINS00, R&D Systems, Minneapolis, MN, USA) according to the manufacturer's protocol. […]

[1] = 0.2 mg/kg once a day oral, 6 weeks
[2] = 0.2 mg/kg once a day oral, 8 weeks
[3] = 0.5 mg/kg once a day oral for 8 weeks, 10 weeks
[4] = 0.5 mg/kg once a day oral, 2 weeks
[5] = 0.5 mg/kg once a day oral, 4 weeks
[6] = 0.5 mg/kg once a day oral, 6 weeks
[7] = 0.5 mg/kg once a day oral, 8 weeks
[8] = 1 mg/kg once a day oral for 8 weeks, 10 weeks
[9] = 1 mg/kg once a day oral, 2 weeks
[10] = 1 mg/kg once a day oral, 4 weeks
[11] = 1 mg/kg once a day oral, 6 weeks
[12] = 1 mg/kg once a day oral, 8 weeks

## OC[C@H]1O[C@@H](c2cc(Cc3ccc(C4CC4)cc3)c(Cl)c3c2CCO3)[C@H](O)[C@@H](O)[C@@H]1O [Enavogliflozin, enavogliflozin]
[1]
  Urine test - Glucose detection: number of dogs with grade +++, 3: 1
  Urine test - Glucose detection: number of dogs with grade +++, 4: 1
  Urine test - Glucose detection: number of dogs with grade ++, 2: 0
  Urine test - Glucose detection: number of dogs with grade +, 1: 3
  Urine test - Glucose detection: number of dogs with grade −, 0: 0
[2]
  Urine test - Glucose detection: number of dogs with grade +++, 3: 1
  Urine test - Glucose detection: number of dogs with grade +++, 4: 1
  Urine test - Glucose detection: number of dogs with grade ++, 2: 2
  Urine test - Glucose detection: number of dogs with grade +, 1: 1
  Urine test - Glucose detection: number of dogs with grade −, 0: 0
[3]
  Urine test - Glucose detection: number of dogs with grade +++, 3: 1
  Urine test - Glucose detection: number of dogs with grade +++, 4: 1
  Urine test - Glucose detection: number of dogs with grade ++, 2: 1
  Urine test - Glucose detection: number of dogs with grade +, 1: 1
  Urine test - Glucose detection: number of dogs with grade −, 0: 1
[4]
  Urine test - Glucose detection: number of dogs with grade +++, 3: 0
  Urine test - Glucose detection: number of dogs with grade +++, 4: 3
  Urine test - Glucose detection: number of dogs with grade ++, 2: 1
  Urine test - Glucose detection: number of dogs with grade +, 1: 1
  Urine test - Glucose detection: number of dogs with grade −, 0: 0
[5]
  Urine test - Glucose detection: number of dogs with grade +++, 3: 0
  Urine test - Glucose detection: number of dogs with grade +++, 4: 5
  Urine test - Glucose detection: number of dogs with grade ++, 2: 0
  Urine test - Glucose detection: number of dogs with grade +, 1: 0
  Urine test - Glucose detection: number of dogs with grade −, 0: 0
[6]
  Urine test - Glucose detection: number of dogs with grade +++, 3: 0
  Urine test - Glucose detection: number of dogs with grade +++, 4: 5
  Urine test - Glucose detection: number of dogs with grade ++, 2: 0
  Urine test - Glucose detection: number of dogs with grade +, 1: 0
  Urine test - Glucose detection: number of dogs with grade −, 0: 0
[7]
  Urine test - Glucose detection: number of dogs with grade +++, 3: 0
  Urine test - Glucose detection: number of dogs with grade +++, 4: 4
  Urine test - Glucose detection: number of dogs with grade ++, 2: 1
  Urine test - Glucose detection: number of dogs with grade +, 1: 0
  Urine test - Glucose detection: number of dogs with grade −, 0: 0
[8]
  Urine test - Glucose detection: number of dogs with grade +++, 3: 1
  Urine test - Glucose detection: number of dogs with grade +++, 4: 1
  Urine test - Glucose detection: number of dogs with grade ++, 2: 0
  Urine test - Glucose detection: number of dogs with grade +, 1: 0
  Urine test - Glucose detection: number of dogs with grade −, 0: 3
[9]
  Urine test - Glucose detection: number of dogs with grade +++, 3: 2
  Urine test - Glucose detection: number of dogs with grade +++, 4: 3
  Urine test - Glucose detection: number of dogs with grade ++, 2: 0
  Urine test - Glucose detection: number of dogs with grade +, 1: 0
  Urine test - Glucose detection: number of dogs with grade −, 0: 0
[10]
  Urine test - Glucose detection: number of dogs with grade +++, 3: 0
  Urine test - Glucose detection: number of dogs with grade +++, 4: 5
  Urine test - Glucose detection: number of dogs with grade ++, 2: 0
  Urine test - Glucose detection: number of dogs with grade +, 1: 0
  Urine test - Glucose detection: number of dogs with grade −, 0: 0
[11]
  Urine test - Glucose detection: number of dogs with grade +++, 3: 0
  Urine test - Glucose detection: number of dogs with grade +++, 4: 5
  Urine test - Glucose detection: number of dogs with grade ++, 2: 0
  Urine test - Glucose detection: number of dogs with grade +, 1: 0
  Urine test - Glucose detection: number of dogs with grade −, 0: 0
[12]
  Urine test - Glucose detection: number of dogs with grade +++, 3: 1
  Urine test - Glucose detection: number of dogs with grade +++, 4: 5
  Urine test - Glucose detection: number of dogs with grade ++, 2: 0
  Urine test - Glucose detection: number of dogs with grade +, 1: 0
  Urine test - Glucose detection: number of dogs with grade −, 0: 0
enavogliflozin-administered groups, particularly 0.2 mg/kg
  Urinary glucose (GLU) excretion: higher
